From patent US8959984B2, “Proteome-wide quantification of small molecule binding to cellular target proteins” (priority 2007, dated 2015)
Where “and” joins values, the source holds several entries; their conditions need not be identical. Identical values can stand only once. Like-named read-outs stand apart in the source and are kept apart here.

How the values were obtained:
GAK = target: T1, GAK (Homo sapiens, UniProt O14976); assay: binding to AX14596 beads (HeLa lysate, SILAC MS)
T1 sequence (O14976 1-1311): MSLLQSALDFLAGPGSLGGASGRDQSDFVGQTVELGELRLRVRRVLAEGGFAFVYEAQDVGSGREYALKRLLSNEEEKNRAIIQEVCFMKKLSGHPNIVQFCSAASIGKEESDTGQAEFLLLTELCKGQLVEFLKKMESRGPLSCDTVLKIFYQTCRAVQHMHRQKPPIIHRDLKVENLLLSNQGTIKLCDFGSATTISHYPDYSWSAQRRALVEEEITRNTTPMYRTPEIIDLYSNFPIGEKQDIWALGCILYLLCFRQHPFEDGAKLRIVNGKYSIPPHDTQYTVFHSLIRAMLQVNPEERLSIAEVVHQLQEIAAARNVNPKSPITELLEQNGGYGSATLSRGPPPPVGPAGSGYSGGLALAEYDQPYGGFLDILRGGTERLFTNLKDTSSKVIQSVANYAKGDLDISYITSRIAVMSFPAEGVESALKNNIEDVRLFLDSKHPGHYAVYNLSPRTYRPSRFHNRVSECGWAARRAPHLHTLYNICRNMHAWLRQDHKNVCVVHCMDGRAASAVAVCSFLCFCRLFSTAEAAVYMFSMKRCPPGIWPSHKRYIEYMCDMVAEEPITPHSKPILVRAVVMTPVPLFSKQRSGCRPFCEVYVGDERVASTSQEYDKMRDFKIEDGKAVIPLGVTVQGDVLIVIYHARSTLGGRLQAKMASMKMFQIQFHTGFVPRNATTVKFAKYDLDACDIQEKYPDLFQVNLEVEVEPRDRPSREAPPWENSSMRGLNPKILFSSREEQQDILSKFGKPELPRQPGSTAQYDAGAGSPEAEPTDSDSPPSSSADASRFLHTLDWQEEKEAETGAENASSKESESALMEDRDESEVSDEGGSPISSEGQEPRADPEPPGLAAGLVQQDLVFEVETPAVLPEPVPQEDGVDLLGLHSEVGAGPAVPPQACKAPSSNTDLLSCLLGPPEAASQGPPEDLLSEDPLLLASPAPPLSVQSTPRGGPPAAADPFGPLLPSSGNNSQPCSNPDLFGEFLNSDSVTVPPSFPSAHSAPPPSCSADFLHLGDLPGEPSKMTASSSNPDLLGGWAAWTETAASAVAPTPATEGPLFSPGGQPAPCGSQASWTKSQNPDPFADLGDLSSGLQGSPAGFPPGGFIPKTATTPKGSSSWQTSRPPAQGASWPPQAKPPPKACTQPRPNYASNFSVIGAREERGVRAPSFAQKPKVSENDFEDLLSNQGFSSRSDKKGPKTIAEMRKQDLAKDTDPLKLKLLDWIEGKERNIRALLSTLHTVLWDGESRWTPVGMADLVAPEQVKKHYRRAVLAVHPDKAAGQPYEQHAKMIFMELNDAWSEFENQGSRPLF

ADK (IPI00290279) = target: T2, ADK (IPI00290279) (Homo sapiens, UniProt P55263); assay: binding to VI16742 beads (HeLa lysate, SILAC MS)
T2 construct: endogenous in cells; host or cells: HeLa S3 cell lysate

CK1d = CK1d (Homo sapiens, UniProt P48730); assay: binding to immobilized V16742 (IVA1/IVA2, HeLa lysate, MS)
MNK1 (MKNK1) = MNK1 (MKNK1) (Homo sapiens, UniProt Q9BUB5)
MNK1 (MKNK1), sequence (Q9BUB5 whole entry): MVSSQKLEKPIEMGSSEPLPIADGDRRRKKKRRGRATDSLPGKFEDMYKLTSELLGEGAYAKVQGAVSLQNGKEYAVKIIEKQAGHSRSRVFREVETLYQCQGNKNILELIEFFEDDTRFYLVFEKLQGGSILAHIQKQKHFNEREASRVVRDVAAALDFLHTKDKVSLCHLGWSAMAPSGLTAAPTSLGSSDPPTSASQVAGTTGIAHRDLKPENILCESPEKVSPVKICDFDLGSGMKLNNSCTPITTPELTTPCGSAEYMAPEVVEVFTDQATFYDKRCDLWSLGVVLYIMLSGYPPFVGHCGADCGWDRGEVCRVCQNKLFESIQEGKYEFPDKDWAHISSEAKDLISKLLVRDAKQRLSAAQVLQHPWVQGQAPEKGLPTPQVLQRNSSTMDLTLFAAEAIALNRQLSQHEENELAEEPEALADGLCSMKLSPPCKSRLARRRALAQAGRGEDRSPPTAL

T2 sequence (P55263 whole entry): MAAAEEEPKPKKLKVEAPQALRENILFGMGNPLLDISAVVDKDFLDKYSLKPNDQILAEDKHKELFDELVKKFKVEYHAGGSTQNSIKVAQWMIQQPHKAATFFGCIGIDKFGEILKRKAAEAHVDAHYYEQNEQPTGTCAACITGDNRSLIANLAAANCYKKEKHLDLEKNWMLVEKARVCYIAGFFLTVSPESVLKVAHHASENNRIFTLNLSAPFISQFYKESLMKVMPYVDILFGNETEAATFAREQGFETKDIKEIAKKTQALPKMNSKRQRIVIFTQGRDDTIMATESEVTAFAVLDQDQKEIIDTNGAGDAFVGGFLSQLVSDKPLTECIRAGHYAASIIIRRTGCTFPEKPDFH
CK1d, sequence (P48730 whole entry): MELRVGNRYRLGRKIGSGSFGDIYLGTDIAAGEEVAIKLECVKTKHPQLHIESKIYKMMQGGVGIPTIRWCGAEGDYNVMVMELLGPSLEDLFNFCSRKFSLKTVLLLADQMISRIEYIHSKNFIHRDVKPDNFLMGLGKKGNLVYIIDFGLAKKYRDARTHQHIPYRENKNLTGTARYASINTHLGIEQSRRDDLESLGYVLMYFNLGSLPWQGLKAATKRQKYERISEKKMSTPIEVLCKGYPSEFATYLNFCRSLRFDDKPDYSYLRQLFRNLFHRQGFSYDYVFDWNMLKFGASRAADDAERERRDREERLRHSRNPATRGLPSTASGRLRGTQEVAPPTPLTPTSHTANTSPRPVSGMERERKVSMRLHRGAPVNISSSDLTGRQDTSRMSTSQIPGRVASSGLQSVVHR

COc1cc2ncnc(Nc3ccc(F)c(Cl)c3)c2cc1OCCCN [AX14596]
Ki (GAK): 82 µM and 82.1 µM
r (3 mg/1 mg lysate) (GAK): 2.59
r (5 h/2.5 h inc. time) (GAK): 1.05
rAVERAGE (2. inc/1. inc) (GAK): 0.45
rAVERAGE (control/1. inc) (GAK): 0.04
% BOUND (GAK; bound to AX14596 beads): 55%

CC(C)n1c(=O)ccc2cnc(Nc3ccc(OCCN)cc3)nc21 [V16742]
r (5 h/2.5 h INC. TIME) (ADK (IPI00290279); 5 h vs 2.5 h incubation time): 1.63
rAVERAGE (CTRL/1 INC) (ADK (IPI00290279); control beads vs first incubation): 0.05
Ki (ADK (IPI00290279); immobilized VI16742): 94.2 µM
rAVERAGE (2 INC/1 INC) (ADK (IPI00290279); second vs first incubation): 0.64

CC(C)n1c(=O)ccc2cnc(Nc3ccc(OCCN)cc3)nc21 [compound 16742]
Percent bound at 1.87 μM 16742 conc (CK1d; EXPERIMENT 1): 16.07%
Percent bound at 8.74 μM 16742 conc (CK1d; EXPERIMENT 1): 57.03%
Percent bound at 52 μM 16742 conc (CK1d; EXPERIMENT 1): 87.27%
Kd (CK1d; EXPERIMENT 1, read-out: Kd): 7.38 µM
Percent bound at 1.87 μM 16742 conc (CK1d; EXPERIMENT 2): 19.73%
Percent bound at 8.74 μM 16742 conc (CK1d; EXPERIMENT 2): 70.68%
Percent bound at 52 μM 16742 conc (CK1d; EXPERIMENT 2): 87.40%
Kd (CK1d; EXPERIMENT 2, read-out: Kd): 5.07 µM
Kd (CK1d; read-out: Kd Avg): 6.23 µM

COc1cc2ncnc(Nc3ccc(F)c(Cl)c3)c2cc1OCCCN1CCOCC1 [gefitinib]
rAVERAGE (10 nM/0 nM Gef.) (MNK1 (MKNK1)): 0.76
rAVERAGE (100 nM/0 nM Gef.) (MNK1 (MKNK1)): 1.00
rAVERAGE (1000 nM/0 nM Gef.) (MNK1 (MKNK1)): 0.73
rAVERAGE (10000 nM/0 nM Gef.) (MNK1 (MKNK1)): 0.37
